The values that follow are results of earlier work, collected in patent US20190209686A1, “PULSE PHOTODYNAMIC TREATMENT OF ACNE” (GALDERMA RESEARCH & DEVELOPMENT, priority 2013, published 2019).

Where two headings read alike, the source gives them in different places.

For data set [1], the system named is acne. To be noted: 20%, 3 hours, 150 J/cm2 broad band light.
Data set [2] concerns acne. To be noted: cream 16% wt., 3 hours, non-coherent red light.

As to `NCC(=O)CCC(=O)O` [ALA acid, 5-amino-4-oxo-pentanoic acid], in the data set with acne [1], the “efficacy of PDT in acne” value is on record as “effective for the treatment of acne”; the “side effects after PDT” value was “erythema, hyperpigmentation and exfoliation were often seen after PDT treatment”.

Regarding `COC(=O)CCC(=O)CN` [methyl ALA ester, 5-ALA methyl ester], in the data set with acne [2], the “side effects of PDT reported by subjects” value was “caused pain and induced severe inflammation”. Moreover, the “efficacy of PDT in acne” value in the data set with acne [2] (repeated 2 weeks later) was “effective in the treatment of acne”.
